≈ marks a conversion by molar mass, not a printed value.
Legend:
[1] = phase solubility experiment (solubility in water before and after cyclodextrin inclusion or complexation); conditions: thermodynamic from solid, Solubility of compounds, Table 1, compound per se, before inclusion
[2] = test system: hepatoma carcinoma cells H22; assay: in vivo tumor model, subcutaneous H22 tumor in Kunming mice; conditions: experimental group 2: peritoneal injection of DMSO solution, 0.3 mg/kg BW every other day, 10 days; tumor volume on the fortieth day
[3] = test system: Bcl-2; assay: Western blotting, inhibition (downregulation) of Bcl-2 in tumor cells, Example 23; assay type: cell-based; conditions: for inhibition against Bcl-2: Western blotting, tumor cells
Description: (§1) The interest protein was detected by the corresponding antibody. The expression of the interest protein in the cells was detected by horseradish peroxidase-labeled secondary antibodies in combination with ECL coloration method. […] The concentration of the protein bands in the Western images were carried out semiquantitative analysis and normalization treatment with KODAK Gel Logic 1500 imaging system software.

[4] = test system: MCF-7 cells; assay: cytotoxicity depending on BAX/BAK, MTT, MCF-7 cells with or without BAX/BAK interfering plasmid; assay type: cell-based
Description: 3 ng of BAX/BAK interfering plasmid was transfected into MCF-7 cells by using calcium phosphate coprecipitation method, 24 hours later, the cells were collected. The expressions after the BAX and BAK proteins interfered with RNA was detected by Western, and the cell groups without plasmid transfection were treated similarly and were set as the control group. The transfected cells were inoculated in a 96-well plate (1×10^5 cells/well), the control experiment of the cell group without plasmid transfection was carried out in parallel. The compound 3-thiomorpholinyl-8-oxo-8 H-acenaphtho[1,2-b]pyrrole-9-carbonitrile to be detected was added thereinto according to the concentration gradient designed before the experiment. 48 hours later, the cellular vitality was detected by MTT. The experimental results were shown in FIG. 6, Gossypol as nonspecific BH3 analogue was treated in parallel.

[5] = molecular target: T1, GST-Bcl-2 protein (Homo sapiens, UniProt P10415); assay: fluorescence polarization assay, competitive binding against FAM-Bid peptide; conditions: Table 3; FAM-Bid competition; table does not say whether Bcl-2 or Mcl-1; read-out: Binding constant
T1 construct: fused on or other part: GST tag on Bcl-2
T1 sequence (P10415 whole entry, the tested form may be a part): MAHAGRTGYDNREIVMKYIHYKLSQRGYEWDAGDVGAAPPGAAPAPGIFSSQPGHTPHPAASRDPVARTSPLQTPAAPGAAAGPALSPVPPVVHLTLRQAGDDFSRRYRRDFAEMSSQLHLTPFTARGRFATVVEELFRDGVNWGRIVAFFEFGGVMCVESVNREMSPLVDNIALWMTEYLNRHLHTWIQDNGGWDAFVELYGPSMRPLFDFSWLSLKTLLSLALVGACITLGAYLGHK
Description: A Bid BH3 peptide (amino acids: 79-99: […]) having 21 amino acids was synthesized and marked with 6-carboxyfluorescein N-succinimidyl ester (FAM) as fluorescent tag (FAM-Bid) at the N-terminal. The reaction system used in the competitive binding experiment was GST-Bcl-2 protein (40 nM) or Mcl-1 protein, which was dissolved in the reaction buffer (100 mM K3PO4, pH 7.5; 100 μg/ml bovine γ albumin; 0.02% sodium azide) together with FAM-Bid polypeptide (5 nM). In a 96-well plate, 100 μL of the reaction system was added into each well. Then 1 μL different concentration of 3-thiomorpholinyl-8-oxo-8H-acenaphtho[1,2-b]pyrrole-9-carbonitrile mother solution to be detected dissolved in DMSO was added thereinto until the final concentration met the experimental design requirements. Meanwhile, two control groups were established, one with the reaction system only contains Bcl-2 or Mcl-1 and FAM-Bid (equivalent to 0% inhibition rate), the other with the reaction system only containing FAM-Bid peptide. After 4 hours of incubation, the 96-well plate was detected by enzyme-labelled meter. The fluorescent polarization value (mP) was tested at […]. Ki value was deduced according to calculation formula. The competitive binding constant between the compound and Bcl-2 was 310 nM.

[6] = test system: Mcl-1; assay: Western blotting, inhibition (downregulation) of Mcl-1 in tumor cells, Example 23; assay type: cell-based; conditions: for inhibition against Mcl-1: Western blotting, tumor cells
Description: as §1

[7] = test system: Bcl-2; assay: Western blotting, compounds compared with cyclodextrin inclusion compounds and complexes, Example 24; assay type: cell-based; conditions: Table 9; 10 μM or equivalent of inclusion compound, 24 hours
Description: (§2) The cells were inoculated in a 6-well plate (2×10^5 cells/well). In the compound group, the compound 3-thiomorpholinyl-8-oxo-8H-acenaphtho[1,2-b]pyrrole-9-carbonitrile was dissolved into DMSO until the final concentration reached 10 μM. In the inclusion group, γ-cyclodextrin inclusion, which had been dissolved into water and was equivalent to 10 μM of the compound, was added thereinto. 24 hours later, the cells were washed with PBS for three times, then the cell sample was collected and cracked with 1×10^6/50 μl cell lysis solution (62.5 mM Tris-HCL pH 6.8; 2% SDS; 10% glycerol; 50 mM DTT; 0.01% bromphenol blue) at low temperature, then the solution was centrifuged and the protein supernatant was collected. The sample was boiled at 100° C. for 5 minutes and then was separated by electrophoresis on 12% SDS-PAGE and transferred. The interest protein was detected by the corresponding antibody. The expression of the interest protein in the cells was detected by horseradish peroxidase-labeled secondary antibodies in combination with ECL coloration method. […] The concentration of the protein bands in the Western figures were carried out semiquantitative analysis and normalization treatment with KODAK Gel Logic 1500 imaging system software.

[8] = test system: Mcl-1; assay: as above; assay type: cell-based; conditions: Table 8; 10 μM or equivalent of inclusion compound, 24 hours
Description: as §2

| Structure (SMILES) | solubility [1] [µM] | tumor inhibition rate [2] | downregulation of Bcl-2 protein, semiquantitative analysis (band concentration, control = 1) ([3]; 2 hours) | downregulation of Bcl-2 protein, semiquantitative analysis (band concentration, control = 1) ([3]; 6 hours) | inhibition against Bcl-2 [3] | dependence of cytotoxicity on BAX/BAK [4] | Ki [5] [nM] | downregulation of Mcl-1 protein, semiquantitative analysis (band concentration, control = 1) ([6]; 6 hours) | downregulation of Mcl-1 protein, semiquantitative analysis (band concentration, control = 1) ([6]; 12 hours) | downregulation of Mcl-1 protein, semiquantitative analysis (band concentration, control = 1) ([6]; 18 hours) | downregulation of Mcl-1 protein, semiquantitative analysis (band concentration, control = 1) ([6]; 24 hours) | inhibition against Mcl-1 [6] | downregulation of Bcl-2 protein, semiquantitative analysis (band concentration, control = 1) [7] | downregulation of Mcl-1 protein, semiquantitative analysis (band concentration, control = 1) [8] |
| --- | --- | --- | --- | --- | --- | --- | --- | --- | --- | --- | --- | --- | --- | --- |
| N#CC1=C2C(=NC1=O)c1c(Sc3ccc(N)cc3)ccc3c(Sc4ccc(N)cc4)ccc2c13 [3,6-di(4-aminophenylthio)-8-oxo-8 H-acenaphtho[1,2-b]pyrrole-9-carbonitrile] | 0.31 (≈ 0.148 µg/mL) | about 50% | 0.72 | 0.43 | had the inhibition against Bcl-2 and Mcl-1 proteins | absolute dependence on BAX/BAK | 7 | 0.99 | 0.99 | 0.68 | 0.33 | had the inhibition against Bcl-2 and Mcl-1 proteins | 0.75 | 0.75 |
| N#CC1=C2C(=NC1=O)c1c(Sc3ccc(Br)cc3)ccc3c(Sc4ccc(Br)cc4)ccc2c13 [3,6-di(4-bromophenylthio)-8-oxo-8H-acenaphtho[1,2-b]pyrrole-9-carbonitrile] | 0.16 (≈ 0.0967 µg/mL) | about 78% | 0.68 | 0.49 | had the inhibition against Bcl-2 and Mcl-1 proteins | absolute dependence on BAX/BAK | 5 | 0.99 | 0.99 | 0.70 | 0.57 | had the inhibition against Bcl-2 and Mcl-1 proteins | 0.69 | 0.69 |
| N#CC1=C2C(=NC1=O)c1cccc3c(Sc4ccc(Br)cc4)ccc2c13 [3-(4-bromophenylthio)-8-oxo-8H-acenaphtho[1,2-b]pyrrole-9-carbonitrile] |  | about 40% | 0.66 | 0.35 | had the inhibition against Bcl-2 and Mcl-1 proteins | absolute dependence on BAX/BAK | 17 | 0.99 | 0.99 | 0.64 | 0.31 | had the inhibition against Bcl-2 and Mcl-1 proteins | 0.67 | 0.69 |
| N#CC1=C2C(=NC1=O)c1c(Sc3ccc(N)cc3)ccc3cccc2c13 [6-(4-aminophenylthio)-8-oxo-8H-acenaphtho[1,2-b]pyrrole-9-carbonitrile] | 0.28 (≈ 0.099 µg/mL) | about 30% | 0.79 | 0.49 | had the inhibition against Bcl-2 and Mcl-1 proteins | absolute dependence on BAX/BAK | 20 | 0.99 | 0.99 | 0.55 | 0.27 | had the inhibition against Bcl-2 and Mcl-1 proteins | 0.74 | 0.70 |
| N#CC1=C2C(=NC1=O)c1cccc3cccc2c13 [8-oxo-8H-acenaphtho[1,2-b]pyrrole-9-carbonitrile] | 0.12 (≈ 0.0276 µg/mL) | about 60% | 0.78 | 0.69 | had the inhibition against Bcl-2 and Mcl-1 proteins | absolute dependence on BAX/BAK | 0.3 | 0.99 | 0.99 | 0.48 | 0.21 | had the inhibition against Bcl-2 and Mcl-1 proteins | 0.69 | 0.77 |

Reference: patent publication US20110251188A1, “ACENAPHTHO HETEROCYCLE COMPOUNDS, CYCLODEXTRIN INCLUSION COMPOUNDS AND COMPLEXES, AND USES IN THE MANUFACTURES OF BH3 PROTEIN ANALOGUE, BCL-2 FAMILY PROTEIN INHIBITORS THEREOF” (DALIAN UNIVERSITY OF TECHNOLOGY, priority 2008, published 2011)
